Tests used:
Assay in all cases: relative viability (nuclei count vs DMSO), 5 days (fraction); higher = more cells survive
[1] = compound: C=CCn1c(=O)c2cnc(Nc3ccc(N4CCN(C)CC4)cc3)nc2n1-c1cccc(C(C)(C)O)n1 [Adavosertib]
In short: (§1)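 Lung cancer cell lines in 1536-well plates were exposed by pinning to five library-drug doses (not always all listed) √10 apart, following an overnight hold at 37 °C. MetaXpress counted Hoechst-stained nuclei from 4× images taken after 5 days without medium change. Viability is the median ratio of treated-well to vehicle-well nuclei across plates. Plates required control CV below 25% and at least one doubling.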

[2] = compound: COc1nc(N)nc2c1ncn2[C@@H]1O[C@H](CO)[C@@H](O)[C@@H]1O [Nelarabine]
In short: as §1

[3] = compound: C=CCn1c(=O)c2cnc(Nc3ccc(N4CCN(C)CC4)cc3)nc2n1-c1cccc(C(C)(C)O)n1 [Adavosertib] + CC1(C)CCC(c2ccc(Cl)cc2)=C(CN2CCN(c3ccc(C(=O)NS(=O)(=O)c4ccc(N[C@H](CCN5CCOCC5)CSc5ccccc5)c(S(=O)(=O)C(F)(F)F)c4)cc3)CC2)C1 [Navitoclax] (partner 0.5 µM)
In short: (§2)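 For relative viability, nuclei counts in treated wells were divided by those in vehicle wells. Lung cancer cell lines had been pin-tool dosed in 1536-well plates the day after seeding and cultured for 5 days, then fixed and stained in one step (final 0.05% Triton X-100, 1% formaldehyde, 1 ug/ml Hoechst) and imaged at 4×. Doses were one drug alone or a fixed anchor-drug dose plus five library-drug doses (not always all listed) in √10 steps, and values are duplicate-plate medians.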

[4] = compound: C=CCn1c(=O)c2cnc(Nc3ccc(N4CCN(C)CC4)cc3)nc2n1-c1cccc(C(C)(C)O)n1 [Adavosertib] + COc1cc2c(Oc3ccc(NC(=O)C4(C(=O)Nc5ccc(F)cc5)CC4)cc3F)ccnc2cc1OCCCN1CCOCC1 [Foretinib] (partner 0.25 µM)
In short: as §2

Cell Line	relative viability ([1]; 0.01 µM)	relative viability ([1]; 0.03162 µM)	relative viability ([1]; 0.1 µM)	relative viability ([1]; 0.3162 µM)	relative viability ([2]; 0.01 µM)	relative viability ([2]; 0.03162 µM)	relative viability ([2]; 0.1 µM)	relative viability ([2]; 0.3162 µM)	relative viability ([2]; 1 µM)	relative viability ([3]; first compound 0.01 µM)	relative viability ([3]; first compound 0.03162 µM)	relative viability ([3]; first compound 0.1 µM)	relative viability ([3]; first compound 0.3162 µM)	relative viability ([4]; first compound 0.01 µM)	relative viability ([4]; first compound 0.03162 µM)	relative viability ([4]; first compound 0.1 µM)	relative viability ([4]; first compound 0.3162 µM)
NCI-H1734	1.03	0.972	1	0.676	1.16	0.96	0.997	1.02	1.05	0.866	0.818	0.877	0.821	0.954	0.831	0.82	0.759
NCI-H2009	1.02	1.01	1.07	1.02	1.23	1.07	1	1.02	1.03	1.14	1.18	1.21	1.23	1.17	1.21	1.26	1.2
NCI-H1993	0.9	0.996	0.925	1.1	1.03	0.863	1.02	0.959	0.987	1.02	0.977	1.01	0.934	0.795	0.863	0.83	0.838
